Laboratory results: paper doi:10.1101/2021.05.05.442828v1 (biorxiv, 2021)

How the values were obtained:
Assay type in all cases: cell-based
KCa1.1 (hKCa1.1, KCNMA) = KCa1.1 (hKCa1.1, KCNMA) (Homo sapiens, UniProt Q12791); experiment: two-electrode voltage clamp, Xenopus laevis oocytes; settings: Kulori solution, pH 7.4; n=5
TRPM8 (hTRPM8) = TRPM8 (hTRPM8) (Homo sapiens, UniProt Q7Z2W7); experiment: Fluo-4 calcium flux assay, HEK-293 TRPM8 cells; settings: antagonist mode; 30 min incubation; normalized to icilin (50 µM) response
KV11.1 (hERG) = KV11.1 (hERG) (Homo sapiens, UniProt Q12809); experiment: automated patch clamp
Sequence of KV11.1 (hERG) (Q12809 whole entry): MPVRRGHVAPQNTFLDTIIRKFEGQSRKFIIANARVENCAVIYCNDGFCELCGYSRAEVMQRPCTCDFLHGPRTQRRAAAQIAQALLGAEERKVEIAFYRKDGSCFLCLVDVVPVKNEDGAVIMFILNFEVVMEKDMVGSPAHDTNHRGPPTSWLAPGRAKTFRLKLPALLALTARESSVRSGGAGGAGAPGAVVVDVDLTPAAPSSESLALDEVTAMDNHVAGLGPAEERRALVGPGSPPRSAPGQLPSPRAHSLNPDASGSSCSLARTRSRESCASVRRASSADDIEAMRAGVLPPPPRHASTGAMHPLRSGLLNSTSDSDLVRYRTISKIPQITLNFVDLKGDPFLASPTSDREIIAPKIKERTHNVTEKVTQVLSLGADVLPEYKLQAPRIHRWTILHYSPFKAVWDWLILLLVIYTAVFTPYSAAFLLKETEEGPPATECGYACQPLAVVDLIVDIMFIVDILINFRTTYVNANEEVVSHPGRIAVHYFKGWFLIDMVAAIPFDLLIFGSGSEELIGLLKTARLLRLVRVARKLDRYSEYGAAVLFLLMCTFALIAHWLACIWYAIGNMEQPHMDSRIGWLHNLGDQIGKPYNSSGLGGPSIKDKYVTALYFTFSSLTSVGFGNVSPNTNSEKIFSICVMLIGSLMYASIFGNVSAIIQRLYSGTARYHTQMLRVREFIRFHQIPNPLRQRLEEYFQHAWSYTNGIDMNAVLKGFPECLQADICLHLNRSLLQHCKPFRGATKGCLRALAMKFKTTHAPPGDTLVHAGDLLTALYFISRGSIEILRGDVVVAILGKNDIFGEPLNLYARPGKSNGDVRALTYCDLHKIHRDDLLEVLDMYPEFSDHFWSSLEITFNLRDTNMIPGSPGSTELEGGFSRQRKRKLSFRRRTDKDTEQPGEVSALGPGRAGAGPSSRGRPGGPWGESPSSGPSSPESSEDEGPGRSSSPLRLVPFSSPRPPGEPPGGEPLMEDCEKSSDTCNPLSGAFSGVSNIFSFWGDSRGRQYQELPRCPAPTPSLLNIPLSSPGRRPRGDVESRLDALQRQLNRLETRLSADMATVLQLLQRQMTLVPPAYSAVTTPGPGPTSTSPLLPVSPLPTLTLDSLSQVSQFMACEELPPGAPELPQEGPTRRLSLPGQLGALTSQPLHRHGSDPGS

Sequence of TRPM8 (hTRPM8) (Q7Z2W7 whole entry): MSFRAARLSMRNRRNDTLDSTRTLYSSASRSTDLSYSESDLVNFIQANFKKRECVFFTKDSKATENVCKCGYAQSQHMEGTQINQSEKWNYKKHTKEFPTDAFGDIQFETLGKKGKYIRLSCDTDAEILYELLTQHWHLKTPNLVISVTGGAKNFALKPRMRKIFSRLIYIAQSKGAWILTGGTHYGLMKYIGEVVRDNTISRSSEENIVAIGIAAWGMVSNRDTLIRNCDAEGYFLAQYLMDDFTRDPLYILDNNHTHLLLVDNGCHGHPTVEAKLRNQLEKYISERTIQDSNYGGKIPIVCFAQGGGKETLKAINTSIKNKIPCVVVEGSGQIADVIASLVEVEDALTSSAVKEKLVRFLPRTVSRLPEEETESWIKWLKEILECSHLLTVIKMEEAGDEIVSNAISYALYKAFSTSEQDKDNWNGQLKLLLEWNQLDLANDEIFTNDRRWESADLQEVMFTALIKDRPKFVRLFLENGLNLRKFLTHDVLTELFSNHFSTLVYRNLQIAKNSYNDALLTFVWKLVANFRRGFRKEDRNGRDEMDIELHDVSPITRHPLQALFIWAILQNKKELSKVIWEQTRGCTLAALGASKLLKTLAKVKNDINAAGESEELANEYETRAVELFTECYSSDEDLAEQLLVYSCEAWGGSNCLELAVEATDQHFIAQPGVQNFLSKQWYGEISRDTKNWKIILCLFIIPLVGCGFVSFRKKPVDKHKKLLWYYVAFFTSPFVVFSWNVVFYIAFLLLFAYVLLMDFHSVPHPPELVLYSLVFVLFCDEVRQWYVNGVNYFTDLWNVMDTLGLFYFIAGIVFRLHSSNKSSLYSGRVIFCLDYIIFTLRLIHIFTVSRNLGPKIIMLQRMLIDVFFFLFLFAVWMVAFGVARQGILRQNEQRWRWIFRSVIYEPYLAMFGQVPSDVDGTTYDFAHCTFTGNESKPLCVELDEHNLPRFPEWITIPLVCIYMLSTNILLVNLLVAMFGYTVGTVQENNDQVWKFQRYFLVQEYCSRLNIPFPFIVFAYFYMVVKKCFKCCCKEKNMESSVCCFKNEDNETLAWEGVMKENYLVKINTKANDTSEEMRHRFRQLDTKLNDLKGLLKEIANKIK
Sequence of KCa1.1 (hKCa1.1, KCNMA) (Q12791 whole entry): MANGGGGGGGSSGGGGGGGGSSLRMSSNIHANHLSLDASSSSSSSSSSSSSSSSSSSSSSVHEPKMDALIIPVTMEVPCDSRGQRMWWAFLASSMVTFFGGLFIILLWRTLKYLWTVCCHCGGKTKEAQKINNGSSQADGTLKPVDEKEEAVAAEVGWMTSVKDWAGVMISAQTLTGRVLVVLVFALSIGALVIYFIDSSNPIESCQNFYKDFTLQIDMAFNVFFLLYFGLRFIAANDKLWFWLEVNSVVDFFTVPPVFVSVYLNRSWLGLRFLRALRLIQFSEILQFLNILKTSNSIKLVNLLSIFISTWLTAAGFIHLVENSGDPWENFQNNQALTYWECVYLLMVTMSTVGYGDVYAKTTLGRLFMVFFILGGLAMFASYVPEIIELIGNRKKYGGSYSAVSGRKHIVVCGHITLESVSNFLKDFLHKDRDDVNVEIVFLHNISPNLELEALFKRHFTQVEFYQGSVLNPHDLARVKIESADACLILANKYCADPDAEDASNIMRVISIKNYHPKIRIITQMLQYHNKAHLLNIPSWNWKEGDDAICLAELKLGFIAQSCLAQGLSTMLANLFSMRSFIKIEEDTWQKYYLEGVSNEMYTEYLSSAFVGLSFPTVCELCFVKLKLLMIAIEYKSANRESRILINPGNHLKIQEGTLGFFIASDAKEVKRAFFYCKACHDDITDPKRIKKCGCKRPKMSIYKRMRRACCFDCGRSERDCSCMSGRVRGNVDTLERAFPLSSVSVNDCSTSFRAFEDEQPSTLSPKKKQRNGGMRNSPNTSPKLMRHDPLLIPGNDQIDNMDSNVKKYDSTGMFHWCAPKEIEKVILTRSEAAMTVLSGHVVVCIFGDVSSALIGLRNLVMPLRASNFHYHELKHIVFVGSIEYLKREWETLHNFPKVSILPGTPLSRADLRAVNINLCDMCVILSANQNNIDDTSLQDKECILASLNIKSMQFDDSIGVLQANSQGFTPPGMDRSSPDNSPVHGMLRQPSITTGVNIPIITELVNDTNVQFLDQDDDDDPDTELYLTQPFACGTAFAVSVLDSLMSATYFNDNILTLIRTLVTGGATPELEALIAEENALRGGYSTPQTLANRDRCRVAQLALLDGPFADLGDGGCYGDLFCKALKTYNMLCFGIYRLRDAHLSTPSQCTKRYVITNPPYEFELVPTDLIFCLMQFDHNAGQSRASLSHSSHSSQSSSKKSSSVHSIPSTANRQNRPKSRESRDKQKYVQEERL

Q: Which results are given for `COc1c(I)cc(CCN)cc1I` [DIMTA, 2-(3,5-diiodo-4-methoxyphenyl)ethan-1-amine]?
A: % inhibition at 5 μM (KCa1.1 (hKCa1.1, KCNMA)): 18 ± 5%; IC50 (TRPM8 (hTRPM8)): 112 µM; IC50 (KV11.1 (hERG)): 18.7 ± 0.1 µM
